From patent US6841661B2, “Glycopeptide antibacterial compounds, compositions containing same and methods of using same” (Princeton Univerisity, priority 1999, dated 2005)

Key:
[1] = system: E. faecium CL 5053 (VanA); assay: microbe, parasite or virus in culture; assay type: cell-based; design: CL5053 (in vitro testing): unit not given here; conditions: Tables 7 and 8; unit not given
Source text: (§1) National Committee for Clinical Laboratory Standards (NCCLS) guidelines [Methods for Dilution Antimicrobial Susceptibility Tests for Bacteria that Grow Aerobically-Fourth Edition; Approved Standard (NCCLS Document M7-A4, January 1997)] are used to establish the assay, although variations are made to optimize the published method according to the specific needs of the present investigation.
(§2) The test panel currently includes eight enterococci and 13 staphylococci, which are selected based upon their antibiotic susceptibility profiles. The methicillin-sensitive Staphylococcus aureus (MSSA) strain MB2985 (Smith isolate) is used to assesses the potential for serum protein binding of the compounds. The paired Gram-negative strains ASP #49 (envA-) and ASP #50 (envA+) (M. Salvatore/N. Lee) are included to judge membrane effects. Table 3 presents a detailed description of the strains included in the panel, including some of the sources of the strains of bacteria.
(§3) The glycopeptide antibiotic teicoplanin is included whenever possible.
(§4) TSB, containing 10% HS* for vancomycin intermediate S. aurcus/methicillin-resistant S. aureus (VISA/MRSA) strains, is inoculated from an appropriate source (frozen broth or agar slant) and grown approximately 17 hr at 35° C. with shaking at 220 rpm. Cultures are grown in tubes with a volume of 5 ml for enterococci and 2 ml for all other strains.
(§5) Four milliliter (4 ml) overnight culture is added to 36 ml physiological saline to obtain tenfold dilutions (enterococci). Overnight culture (0.4 ml) is added to 39.6 ml saline to obtain 100-fold dilutions (all strains except enterococci). Diluted cultures are maintained on ice until time of inoculation of test plates.
(§6) The number of CFU/mL is determined on BHI agar plates, although this is not done routinely because titers of overnight cultures are relatively constant. The test media include: • BHI for enterococci and VISA/MRSA; • MH II (i.e., cation-adjusted Mueller-Hinton broth) for MRS, MSS and E. coli.; • MH II+HSA for MSSA is prepared as follows: • a. 2×MHII+86mg/ml HSA • b. Dissolve 4.3 g HSA in 50 ml autoclaved 2x MH II. • c. pH to 7.0 by adding 2M MOPS, sodium. • d. Filter sterilize using 0.22 μm Coming cellulose acetate filter, used because of reported low protein binding. • e. 1×MH II+43 mg/ml HSA • f. Dilute the 2×medium twofold and filter as above. 5.8.6. Preparation of Test Plates
(§7) Using a Denley liquid handling system (or similar automatic device), 100 μ1×medium is added to each well in columns 2-12 of a 96-well microtiter dish. Using a multichannel pipettor, 100 μl 2×medium is added to each well in column 1. Plates may be filled on the day prior to assay, wrapped in plastic bags and refrigerated.
(§8) Vancomycin, Schering 29482, and teicoplanin are prepared on a weight per volume basis using 10 mM 3-(N-morpholino)propane-sulfonic acid (MOPS) buffer pH 7. Test compounds are received in solution in appropriate solvent (typically as 1 mg/ml in DMSO) or are dissolved in appropriate solvent prior to further dilution in 10 mM MOPS buffer, ph7. Consistent with NCCLS guidelines, antibiotics are handled aseptically but are not otherwise sterilized.
(§9) 100 μl appropriately diluted antibiotic solution is added to the first well of the designated row of the 96-well microtiter dish and serially diluted by twofold across the row using the Denley liquid handling system. With the aid of a Dynatech NEC 2000 inoculator, each well of the microtiter dish is inoculated with 1.5 μl diluted overnight culture, yielding approximately 1-5×10^6 CFU/ml for enterococci and approximately 3-7×10^5 CFU/ml for all other strains. Dishes are placed in stacks of no more than five, wrapped in plastic bags and incubated at 35° C. • Indication of result(s) type (% INH, IC50, Zone size, etc.) • MIC=minimum inhibitory concentration ps 5.8.9. Interpretation of the Results on the Basis of Activity […]

[2] = system: E. faecium CL 4931 (VanA); assay: microbe, parasite or virus in culture; assay type: cell-based; design: CL4931 (in vitro testing): unit not given here; conditions: Tables 7 and 8; unit not given
Source text: as §1, §2, §3, §4, §5, §6, §7, §8, §9

[3] = system: E. faecium CL 5242 (VanA); assay: microbe, parasite or virus in culture; assay type: cell-based; design: CL5242 (in vitro testing): unit not given here; conditions: Tables 7 and 8; unit not given
Source text: as §1, §2, §3, §4, §5, §6, §7, §8, §9

[4] = system: CL 4931, CL 5053, CL 5242 and CL 4877; assay type: cell-based, E. faecium, E. faecalis; design: unit not given here; conditions: mean of CL4931, CL5053, CL5242, CL4877; unit not given
Source text: as §1, §2, §3, §4, §5, §6, §7, §8, §9

[5] = system: E. faecalis CL 4877 (VanB); assay: microbe, parasite or virus in culture; assay type: cell-based; design: CL4877 (in vitro testing): unit not given here; conditions: Tables 7 and 8; unit not given
Source text: as §1, §2, §3, §4, §5, §6, §7, §8, §9

SMILES | CL5053 (in vitro testing) [1] | CL4931 (in vitro testing) [2] | CL5242 (in vitro testing) [3] | Mean [4] | CL4877 (in vitro testing) [5]
CNC(CC(C)C)C(=O)NC1C(=O)NC(CC(N)=O)C(=O)NC2C(=O)NC3C(=O)NC(C(=O)NC(C(=O)O)c4cc(O)cc(O)c4-c4cc3ccc4O)C(O)c3ccc(c(Cl)c3)Oc3cc2cc(c3OC2OC(CNCCO)C(O)C(O)C2OC2CC(C)(NCc3ccc(OCc4ccc(Cl)c(Cl)c4)cc3)C(O)C(C)O2)Oc2ccc(cc2Cl)C1O (centres unmarked) [Compound 146] | 8 | 8 | 1 | 4.4 | 0.5
CNCC1OC(Oc2c3cc4cc2Oc2ccc(cc2Cl)C(O)C2NC(=O)C(NC(=O)C4NC(=O)C(CC(N)=O)NC(=O)C(NC(=O)C(CC(C)C)NC)C(O)c4ccc(c(Cl)c4)O3)c3ccc(O)c(c3)-c3c(O)cc(O)cc3C(C(=O)O)NC2=O)C(OC2CC(C)(NCc3ccc(OCc4ccc(Cl)c(Cl)c4)cc3)C(O)C(C)O2)C(O)C1O (centres unmarked) [Compound 147] | 8 | 4 | 2 | 4.5 | 4
CCCNCC1OC(Oc2c3cc4cc2Oc2ccc(cc2Cl)C(O)C2NC(=O)C(NC(=O)C4NC(=O)C(CC(N)=O)NC(=O)C(NC(=O)C(CC(C)C)NC)C(O)c4ccc(c(Cl)c4)O3)c3ccc(O)c(c3)-c3c(O)cc(O)cc3C(C(=O)O)NC2=O)C(OC2CC(C)(NCc3ccc(OCc4ccc(Cl)c(Cl)c4)cc3)C(O)C(C)O2)C(O)C1O (centres unmarked) [Compound 148] | 8 | 8 | 1 | 4.5 | 1
CNC(CC(C)C)C(=O)NC1C(=O)NC(CC(N)=O)C(=O)NC2C(=O)NC3C(=O)NC(C(=O)NC(C(=O)O)c4cc(O)cc(O)c4-c4cc3ccc4O)C(O)c3ccc(c(Cl)c3)Oc3cc2cc(c3OC2OC(CNCc3ccc(Cl)cc3)C(O)C(O)C2OC2CC(C)(NCc3ccc(OCc4ccc(Cl)c(Cl)c4)cc3)C(O)C(C)O2)Oc2ccc(cc2Cl)C1O (centres unmarked) [Compound 149] | 8 | 8 | 2 | 4.6 | 0.25
C=CCNCC1OC(Oc2c3cc4cc2Oc2ccc(cc2Cl)C(O)C2NC(=O)C(NC(=O)C4NC(=O)C(CC(N)=O)NC(=O)C(NC(=O)C(CC(C)C)NC)C(O)c4ccc(c(Cl)c4)O3)c3ccc(O)c(c3)-c3c(O)cc(O)cc3C(C(=O)O)NC2=O)C(OC2CC(C)(NCc3ccc(OCc4ccc(Cl)c(Cl)c4)cc3)C(O)C(C)O2)C(O)C1O (centres unmarked) [Compound 150] | 8 | 8 | 2 | 5.5 | 4
CNC(CC(C)C)C(=O)NC1C(=O)NC(CC(N)=O)C(=O)NC2C(=O)NC3C(=O)NC(C(=O)NC(C(=O)O)c4cc(O)cc(O)c4-c4cc3ccc4O)C(O)c3ccc(c(Cl)c3)Oc3cc2cc(c3OC2OC(CNC(=O)Cc3ccccc3)C(O)C(O)C2OC2CC(C)(NCc3ccc(OCc4ccc(Cl)c(Cl)c4)cc3)C(O)C(C)O2)Oc2ccc(cc2Cl)C1O (centres unmarked) [Compound 151] | 16 | 8 | 2 | 6.6 | 0.5
CNC(CC(C)C)C(=O)NC1C(=O)NC(CC(N)=O)C(=O)NC2C(=O)NC3C(=O)NC(C(=O)NC(C(=O)O)c4cc(O)cc(O)c4-c4cc3ccc4O)C(O)c3ccc(c(Cl)c3)Oc3cc2cc(c3OC2OC(CNCc3ccccc3Cl)C(O)C(O)C2OC2CC(C)(NCc3ccc(OCc4ccc(Cl)c(Cl)c4)cc3)C(O)C(C)O2)Oc2ccc(cc2Cl)C1O (centres unmarked) [Compound 153] | 16 | 8 | 4 | 7.0 | 0.12
CNC(CC(C)C)C(=O)NC1C(=O)NC(CC(N)=O)C(=O)NC2C(=O)NC3C(=O)NC(C(=O)NC(C(=O)O)c4cc(O)cc(O)c4-c4cc3ccc4O)C(O)c3ccc(c(Cl)c3)Oc3cc2cc(c3OC2OC(CNCC3CCNCC3)C(O)C(O)C2OC2CC(C)(NCc3ccc(OCc4ccc(Cl)c(Cl)c4)cc3)C(O)C(C)O2)Oc2ccc(cc2Cl)C1O (centres unmarked) [Compound 155] | 16 | 16 | 4 | 9.3 | 1
CNC(CC(C)C)C(=O)NC1C(=O)NC(CC(N)=O)C(=O)NC2C(=O)NC3C(=O)NC(C(=O)NC(C(=O)O)c4cc(O)cc(O)c4-c4cc3ccc4O)C(O)c3ccc(c(Cl)c3)Oc3cc2cc(c3OC2OC(CNCC3CCCCO3)C(O)C(O)C2OC2CC(C)(NCc3ccc(OCc4ccc(Cl)c(Cl)c4)cc3)C(O)C(C)O2)Oc2ccc(cc2Cl)C1O (centres unmarked) [Compound 156] | 16 | 16 | 2 | 9.5 | 4
CNC(CC(C)C)C(=O)NC1C(=O)NC(CC(N)=O)C(=O)NC2C(=O)NC3C(=O)NC(C(=O)NC(C(=O)O)c4cc(O)cc(O)c4-c4cc3ccc4O)C(O)c3ccc(c(Cl)c3)Oc3cc2cc(c3OC2OC(CNCCC#N)C(O)C(O)C2OC2CC(C)(NCc3ccc(OCc4ccc(Cl)c(Cl)c4)cc3)C(O)C(C)O2)Oc2ccc(cc2Cl)C1O (centres unmarked) [Compound 157] | 16 | 16 | 4 | 10.0 | 4
CNC(CC(C)C)C(=O)NC1C(=O)NC(CC(N)=O)C(=O)NC2C(=O)NC3C(=O)NC(C(=O)NC(C(=O)O)c4cc(O)cc(O)c4-c4cc3ccc4O)C(O)c3ccc(c(Cl)c3)Oc3cc2cc(c3OC2OC(CNCc3ccc(Cl)c(Cl)c3)C(O)C(O)C2OC2CC(C)(NCc3ccc(OCc4ccc(Cl)c(Cl)c4)cc3)C(O)C(C)O2)Oc2ccc(cc2Cl)C1O (centres unmarked) [Compound 158] | 16 | 16 | 4 | 10.0 | 4
CNC(CC(C)C)C(=O)NC1C(=O)NC(CC(N)=O)C(=O)NC2C(=O)NC3C(=O)NC(C(=O)NC(C(=O)O)c4cc(O)cc(O)c4-c4cc3ccc4O)C(O)c3ccc(c(Cl)c3)Oc3cc2cc(c3OC2OC(CNCC(C)C)C(O)C(O)C2OC2CC(C)(NCc3ccc(OCc4ccc(Cl)c(Cl)c4)cc3)C(O)C(C)O2)Oc2ccc(cc2Cl)C1O (centres unmarked) [Compound 159] | 16 | 16 | 4 | 10.0 | 4
CNC(CC(C)C)C(=O)NC1C(=O)NC(CC(N)=O)C(=O)NC2C(=O)NC3C(=O)NC(C(=O)NC(C(=O)O)c4cc(O)cc(O)c4-c4cc3ccc4O)C(O)c3ccc(c(Cl)c3)Oc3cc2cc(c3OC2OC(CNCCCN3CCCC3)C(O)C(O)C2OC2CC(C)(NCc3ccc(OCc4ccc(Cl)c(Cl)c4)cc3)C(O)C(C)O2)Oc2ccc(cc2Cl)C1O (centres unmarked) [Compound 160] | 16 | 16 | 4 | 13.0 | 16
